Measurements taken from ChEMBL document CHEMBL5113486, “Hit-to-lead optimization of novel phenyl imidazole carboxamides that are active against Leishmania donovani” (Eur J Med Chem, 2022).

What was measured:
[1] = Cytotoxicity against human THP-1 cells assessed as cell growth inhibition; format: toxicity, cell-based
[2] = Selectivity index, ratio of CC50 for cytotoxicity against human THP-1 cells to IC50 for antileishmanial activity against Leishmania donovani infected in human THP-1 cells; format: toxicity, cell-based; conditions: read-out: Ratio CC50/IC50
Leishmania donovani = test: Antileishmanial activity against Leishmania donovani infected in human THP-1 cells assessed as growth inhibition by intramacrophage assay; format: functional, organism-based
[3] = Cytotoxicity against human HepG2 cells assessed as cell growth inhibition at 100 uM; format: toxicity, cell-based; conditions: read-out: Activity

| SMILES | CC50 [1] [µM] | selectivity ratio [2] | IC50 (Leishmania donovani) [µM] | inhibition at 100 µM [3] [%] |
| --- | --- | --- | --- | --- |
| Cc1ccc(-c2cnc(NC(=O)c3ccc(F)cc3)n2C)cc1 | 60 | 4.5 | 13 |  |
| CCCCCCCCCCCCCCCCOP(=O)([O-])OCC[N+](C)(C)C [MILTEFOSINE] | > 20 |  | 0.39 |  |
| O=C(Nc1ncc(-c2ccccc2)o1)c1ccc(Cl)cc1 | 10 | 30 | 0.33 |  |
| COc1ccc(-c2cnc(NC(=O)c3ccc(F)cc3)n2C2CCCC2)cc1 | > 100 | > 1 | 35 | < 50 |
| COc1ccc(-c2cnc(NC(=O)c3ccccc3[N+](=O)[O-])n2C)cc1 | > 50 | > 1 | > 50 |  |
| Cn1c(-c2ccccc2)cnc1NC(=O)c1ccccc1 | > 100 | > 22 | 4.5 |  |
| COc1ccc(-c2cnc(NC(=O)c3ccncc3)n2C)cc1 | > 100 | > 2.3 | 44 | < 50 |
| COc1ccc(C(=O)Nc2ncc(-c3ccc(OC)cc3)n2C)cc1 | > 100 | > 1 | > 100 |  |
| COc1ccc(-c2cnc(NC(=O)c3ccc(O)cc3)n2C)cc1 | > 100 | > 1 | > 100 |  |
| COc1ccc(-c2cnc(NC(=O)c3ccccc3Cl)n2C)cc1 | > 50 | > 3.8 | 13 |  |
| Cc1cccc(C(=O)Nc2ncc(-c3ccccc3)n2C)c1 | > 50 | > 14 | 3.5 |  |
| COc1cccc(-c2cnc(NC(=O)c3ccc(F)cc3)n2C)c1 | > 100 | > 1 | > 100 |  |
| COc1ccc(-c2cnc(NC(=O)c3ccc(F)cc3)[nH]2)cc1 | > 100 | > 8.3 | 38 | < 50 |
| COc1ccc(-c2cnc(NC(=O)c3ccccc3O)n2C)cc1 | > 100 | > 1 | > 100 | < 50 |
| Cc1cccc(-c2cnc(NC(=O)c3ccc(F)cc3)n2C)c1 | > 100 | > 1.3 | 79 | < 50 |
| COc1ccc2nc(NC(=O)c3ccc(F)cc3)n(C)c2c1 | > 100 | > 2.3 | 44 | < 50 |
| Cn1c(-c2ccc([N+](=O)[O-])cc2)cnc1NC(=O)c1ccc(F)cc1 | > 50 | > 1 | > 50 |  |
| COc1ccc(-c2cnc(NC(=O)C3CCCC3)n2C)cc1 | > 100 | > 1.2 | 83 | < 50 |
| Cn1c(-c2ccccc2Br)cnc1NC(=O)c1ccc(F)cc1 | > 100 | > 1 | > 100 |  |
| COc1ccc(-c2cnc(NC(=O)c3cccc(O)c3)n2C)cc1 | > 100 | > 1.9 | 54 |  |
| Cn1c(-c2ccc(C#N)cc2)cnc1NC(=O)c1ccc(F)cc1 | > 50 | > 1 | > 50 |  |
| COc1ccc(-c2cnc(NC(=O)c3ccc(F)cc3)n2Cc2ccccc2)cc1 | > 100 | 1.4 | > 100 | < 50 |
| COc1ccc(CN(C)C(=O)NC(=O)c2ccc(F)cc2)cc1 | > 50 | > 1 | > 50 |  |

| SMILES | CC50 [1] [µM] | selectivity ratio [2] | IC50 (Leishmania donovani) [µM] | inhibition at 100 µM [3] [%] |
| --- | --- | --- | --- | --- |
| Cn1c(-c2ccccc2)cnc1NC(=O)c1cccc(Cl)c1 | > 50 | > 5.9 | 8.5 |  |
| COc1ccc(-c2cnc(NC(=O)C3CCOCC3)n2C)cc1 | > 100 | > 1 | > 100 |  |
| Cn1c(-c2ccccc2Cl)cnc1NC(=O)c1ccc(F)cc1 | > 50 | > 3.3 | 15 |  |
| COc1ccc(-c2cccc(NC(=O)c3ccc(F)cc3)n2)cc1 | > 100 | > 1 | > 100 |  |
| CCn1c(-c2ccc(OC)cc2)cnc1NC(=O)c1ccc(F)cc1 | > 100 | > 2.6 | > 100 | < 50 |
| COc1ccc(-c2cnc(NC(=O)c3ccc(C)cc3)n2C)cc1 | > 100 | > 3.4 | 29 |  |
| Cc1ccc(C(=O)Nc2ncc(-c3ccccc3)o2)cc1 | 26 | 19 | 1.4 |  |
| COc1ccc(-c2cnc(NC(=O)c3cccc(Br)c3)n2C)cc1 | > 100 | > 1 | > 100 | < 50 |
| Cn1c(-c2ccccc2)cnc1NC(=O)c1ccccc1Cl | > 50 | > 10 | 5 |  |
| Cn1c(-c2ccccc2)cnc1NC(=O)c1cccc(Br)c1 | > 50 | > 16 | 3.1 |  |
| Cc1ccccc1-c1cnc(NC(=O)c2ccc(F)cc2)n1C | > 50 | > 13 | 3.9 |  |
| COc1ccc(-c2cnc(NC(=O)c3ccc(F)cc3)n2C(C)C)cc1 | > 50 | > 1 | > 50 |  |
| Cn1c(-c2cccc(Br)c2)cnc1NC(=O)c1ccc(F)cc1 | > 50 | > 9.3 | 5.4 |  |
| COc1ccc(-c2cnc(NC(=O)c3ccc(F)cc3)n2-c2ccccc2)cc1 | 8.8 | > 2.9 | 6.1 |  |
| Cn1c(-c2ccccc2)cnc1NC(=O)c1cc(-c2ccccn2)[nH]n1 | > 50 | > 74 | 0.68 |  |
| Cn1c(-c2cccc(F)c2)cnc1NC(=O)c1ccc(F)cc1 | 58 | 4.8 | 12 |  |
| COc1ccc(-c2cn(C)c(NC(=O)c3ccc(F)cc3)n2)cc1 | > 50 | > 1 | > 50 |  |
| COc1ccccc1-c1cnc(NC(=O)c2ccc(F)cc2)n1C | > 100 | > 1 | > 100 |  |
| COc1ccc(-c2cnc(NC(=O)c3cccc([N+](=O)[O-])c3)n2C)cc1 | > 100 | > 1 | > 100 |  |
| COc1ccc(-c2cnc(NC(=O)c3ccc(Cl)cc3)n2C)cc1 | > 100 | > 12 | 8.1 |  |
| Cn1c(-c2ccccc2[N+](=O)[O-])cnc1NC(=O)c1ccc(F)cc1 | 31 | 3.2 | 9.8 |  |
| COc1ccc(-c2ccnc(NC(=O)c3ccc(F)cc3)c2)cc1 | > 100 | > 1 | > 100 |  |
| COc1ccc(CNC(=O)NC(=O)c2ccc(F)cc2)cc1 | > 50 | > 1 | > 50 |  |

| SMILES | CC50 [1] [µM] | selectivity ratio [2] | IC50 (Leishmania donovani) [µM] | inhibition at 100 µM [3] [%] |
| --- | --- | --- | --- | --- |
| CCCn1c(-c2ccc(OC)cc2)cnc1NC(=O)c1ccc(F)cc1 | > 100 | > 1 | 18 |  |
| Cn1c(-c2cccc([N+](=O)[O-])c2)cnc1NC(=O)c1ccc(F)cc1 | > 50 | > 1 | > 50 |  |
| Cn1c(-c2ccccc2)cnc1NC(=O)c1ccc(Br)cc1 | > 100 | > 2.7 | 37 |  |
| Cn1c(-c2ccccc2)cnc1NC(=O)c1ccc(Cl)cc1 | > 100 | > 8.3 | 12 |  |
| Cn1cc(-c2ccccc2)nc1NC(=O)c1ccc(F)cc1 | > 50 | > 1 | > 50 |  |
| Cn1c(-c2ccc(Cl)cc2)cnc1NC(=O)c1ccc(F)cc1 | 37 | 7.6 | 4.9 |  |
| Cn1c(-c2cccc(C#N)c2)cnc1NC(=O)c1ccc(F)cc1 | > 100 | > 6.3 | 16 |  |
| COc1ccc(-c2cnc(NC(=O)c3ccccc3Br)n2C)cc1 | > 100 | > 1 | > 100 |  |
| Cn1c(-c2cccc(Cl)c2)cnc1NC(=O)c1ccc(F)cc1 | > 50 | > 2.3 | 22 |  |
| COc1ccc(-c2cnc(NC(=O)c3ccccc3OC)n2C)cc1 | > 100 | > 3 | 33 |  |
| C[C@@H]1[C@H](O)[C@@H](C)/C=C/C=C/C=C/C=C/C=C/C=C/C=C/[C@H](O[C@@H]2O[C@H](C)[C@@H](O)[C@H](N)[C@@H]2O)C[C@@H]2O[C@](O)(C[C@@H](O)C[C@@H](O)[C@H](O)CC[C@@H](O)C[C@@H](O)CC(=O)O[C@H]1C)C[C@H](O)[C@H]2C(=O)O [AMPHOTERICIN B] | 6 |  | 0.12 |  |
| Cn1c(-c2ccccc2Cl)cnc1NC(=O)c1ncc[nH]1 | > 50 | > 9.6 | 5.2 |  |
| COc1ccc(-c2cnc(NC(=O)CCc3ccccc3)n2C)cc1 | > 100 | > 4.5 | 22 |  |
| CCC(=O)Nc1ncc(-c2ccc(OC)cc2)n1C | > 100 | > 1 | > 100 |  |
| Cc1ccc(C(=O)Nc2ncc(-c3ccccc3)n2C)cc1 | > 50 | > 20 | 2.4 |  |
| Cn1c(-c2ccc(C#N)cc2)cnc1NC(=O)c1ncc[nH]1 | > 100 | > 7.1 | 14 |  |
| COc1ccc(-c2cnc(NC(=O)c3cccc(Cl)c3)n2C)cc1 | > 28 | > 2.8 | > 10 |  |
| Cn1c(-c2cccc(C#N)c2)cnc1NC(=O)c1ncc[nH]1 | > 50 | > 1 | > 50 |  |
| Cn1c(-c2ccc(Br)cc2)cnc1NC(=O)c1ccc(F)cc1 | 46 | 6.5 | 7.1 |  |
| COc1ccc(-c2cnc(NC(=O)c3ccccn3)n2C)cc1 | > 100 | > 7.7 | 13 |  |
| COc1ccccc1-c1cnc(NC(=O)c2ncc[nH]2)n1C | > 50 | > 1 | > 50 |  |
| COc1ccc(-c2cnc(NC(=O)c3cccc(OC)c3)n2C)cc1 | > 100 | > 1 | > 100 |  |
